≈ marks a conversion by molar mass, not a printed value.
What was measured:
[1] = tested on: leucine aminopeptidase (LAP); experiment: LAP determination in serum, absorption change per minute (Example 1); assay type: biochemical
Method: 3 ml of the reagent solution was incubated at 37° C. for ten minutes. To the solution was added 0.05 ml of a serum sample and the mixture was immediately stirred and the change in absorption of the solution at 745 nm was measured for one minute.
LAP activity in the sample can be calculated using the following equation: [formula] ΔE means the amount of absorption change per minute.
The same procedures as described above were repeated except that the following materials were used. […]

[2] = Maximum wavelength of formed pigment; assay type: physicochemical
Method: 50 μl of 1 mM each free compound was added to 3 ml of 0.1M phosphate buffer containing 0.5 mg/ml EMSE and 1 U/ml laccase and the mixture was incubated at 37° C. for 5 minutes. The absorption of the reaction solution at λmax was measured. As a control, 5-aminosalicylic acid was used and the reaction of the compound with 2,6-xylenol was carried out in the presence of metaperiodate under strong alkaline conditions.

[3] = Stability of pigment; assay type: physicochemical
[4] = Solubility of substrate; assay type: physicochemical; details: read-out: S: Solubility
[5] = tested on: leucine aminopeptidase (LAP); experiment: LAP determination in serum, end-point colour reactions (Example 2); assay type: biochemical
Method: The reagent solution wherein laccase was excluded from the reagent solution of Example 1 was used.
3 ml of the reagent solution was incubated at 37° C. for 10 minutes and to the mixture was added 0.05 ml of a serum sample. The mixture was immediately stirred and incubated at 37° C. for 10 minutes. After ten minutes passed,
(a) 0.03 ml of 10 mg/ml α-naphthol methanol solution and 0.1 ml of 1N-NaOH solution containing 50 mg/ml sodium salt of meta-periodate were added to the solution. The mixture was incubated at 37° C. for 10 minutes and the absorption of the reaction solution at 600 nm was measured.
(b) 1 ml of 10 mg/ml p-N,N-dimethylamino cinnamaldehyde ethanol solution and 1 ml of 0.4N-HCl solution were added to the solution and the mixture was incubated at 37° C. for 10 minutes. The absorption of the reaction solution at 570 nm was measured.
(c) 0.5 ml of 1N-HCl and 0.5 ml of 1 mg/ml sodium nitrite were added to the solution and the mixture was incubated at 37° C. for 10 minutes. Then 0.1 ml of 1 mg/ml 3,5-xylenol ethanol solution was added thereto and the absorption of the reaction solution at 650 nm was measured.

[6] = target: T1, γ-glutamyltranspeptidase (γ-GTP) (Homo sapiens, UniProt P19440); experiment: γ-GTP determination in serum (Example 3); assay type: biochemical; details: found with the compound as substrate; standard serum 235 mU/ml; 37° C., 5 minutes; wavelength of Table 2
T1 construct: from tissue; host or cells: serum
T1 sequence (P19440 1-380 limits assumed): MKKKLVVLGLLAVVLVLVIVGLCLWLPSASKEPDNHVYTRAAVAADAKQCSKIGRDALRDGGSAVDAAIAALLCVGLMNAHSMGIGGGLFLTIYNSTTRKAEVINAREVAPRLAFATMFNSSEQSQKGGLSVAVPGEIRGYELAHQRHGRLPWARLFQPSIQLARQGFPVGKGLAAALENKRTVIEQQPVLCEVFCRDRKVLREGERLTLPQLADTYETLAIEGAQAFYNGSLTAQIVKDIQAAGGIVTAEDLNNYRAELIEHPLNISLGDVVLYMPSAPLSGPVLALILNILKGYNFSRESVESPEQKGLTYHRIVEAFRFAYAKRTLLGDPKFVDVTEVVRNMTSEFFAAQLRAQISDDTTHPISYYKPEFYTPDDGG
T1 sequence (P19440 381-569 limits assumed): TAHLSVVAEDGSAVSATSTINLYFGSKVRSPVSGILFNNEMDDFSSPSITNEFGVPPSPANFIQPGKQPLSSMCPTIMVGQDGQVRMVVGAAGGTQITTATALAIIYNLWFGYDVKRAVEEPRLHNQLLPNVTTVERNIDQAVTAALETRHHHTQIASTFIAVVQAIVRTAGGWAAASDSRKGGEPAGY
Method: In this example, 500 mg of compound Nos. 1, 3, 5, 7 and 9 each and 500 mg of glycylglycine were dissolved in 100 ml (pH=7.7) and 0.1M phosphate buffer. The resultant solutions were designated A-1, A-3, A-5, A-7 and A-9, respectively. 50 mg of 3-{N-(m-tolyl)-N-ethyl}amino-2-hydroxypropane sulfonic acid was dissolved in 100 ml of phosphate buffer solution to obtain solution B. 50 mg/ml sodium meta-periodate containing 1N-HCl solution was prepared as solution C.
6 ml of solution A-1, A-3, A-5, A-7 or A-9 was equally poured to 3 test tubes. The samples were incubated at 37° C. and to the solution was added […] of (a) serum sample (b) standard serum or (c) water. The mixtures were stirred and heated for 5 minutes. After 5 minutes had passed, 1 ml of solution B and 1 ml of solution C were added to each of the mixtures and the mixtures were incubated for 10 minutes after stirring. As the standard serum, a serum having 235 mU/ml of γ-GTP was used.
The γ-GTP activity of the serum sample can be calculated by the following equation. [formula]

[7] = Serum(1), 37° C., 745 nm Compound No. 2, 635 nm (a), 565 nm (b), 675 nm (c)

In the case of CC(C)C[C@H](N)C(=O)Nc1ccc(O)c(C(=O)O)c1 [(a), L-leucil-3-carboxy-4-hydroxyanilide], the “amount of absorption change per minute” value ([1]; Serum (2), same wavelengths) is reported as 0.0127, the “amount of absorption change per minute” value ([1]; Serum (3), same wavelengths) is reported as 0.0198 and the “amount of absorption change per minute” value ([1]; Serum (4), same wavelengths) is reported as 0.0203. The “amount of absorption change per minute” value ([1]; Serum (5), same wavelengths) was 0.0148, the “amount of absorption change per minute” value ([1]; Serum (6), same wavelengths) was 0.0158 and the “amount of absorption change per minute” value ([1]; Serum (7), same wavelengths) was 0.0153. For the same molecule, the “amount of absorption change per minute” value ([1]; Serum (8), same wavelengths) was 0.0191, the “amount of absorption change per minute” value ([1]; Serum (9), same wavelengths) was 0.0190 and the “amount of absorption change per minute” value ([1]; Serum (10), same wavelengths) was 0.0184. The “amount of absorption change per minute” value [1, 7] was 0.0188.
For CC(C)C[C@H](N)C(=O)Nc1ccc([N+](=O)[O-])cc1 [(b), L-leucil-p-nitroanilide], the “amount of absorption change per minute” value ([1]; Serum (2), same wavelengths) was 0.0054, the “amount of absorption change per minute” value ([1]; Serum (3), same wavelengths) was 0.0090 and the “amount of absorption change per minute” value ([1]; Serum (4), same wavelengths) was 0.0089. For the same molecule, the “amount of absorption change per minute” value ([1]; Serum (5), same wavelengths) was 0.0071, the “amount of absorption change per minute” value ([1]; Serum (6), same wavelengths) was 0.0071 and the “amount of absorption change per minute” value ([1]; Serum (7), same wavelengths) was 0.0074. The “amount of absorption change per minute” value ([1]; Serum (8), same wavelengths) was 0.0086, the “amount of absorption change per minute” value ([1]; Serum (9), same wavelengths) was 0.0082 and the “amount of absorption change per minute” value ([1]; Serum (10), same wavelengths) was 0.0079. The “amount of absorption change per minute” value [1, 7] was 0.0071.
In the case of CCN(CC)c1ccc(NC(=O)[C@@H](N)CC(C)C)cc1 [(c), L-leucil-p-N,N-- diethylaminoanilide], the “amount of absorption change per minute” value ([1]; Serum (2), same wavelengths) is reported as 0.0095, the “amount of absorption change per minute” value ([1]; Serum (3), same wavelengths) is reported as 0.0150 and the “amount of absorption change per minute” value ([1]; Serum (4), same wavelengths) is reported as 0.0145. For the same molecule, the “amount of absorption change per minute” value ([1]; Serum (5), same wavelengths) was 0.0116, the “amount of absorption change per minute” value ([1]; Serum (6), same wavelengths) was 0.0126 and the “amount of absorption change per minute” value ([1]; Serum (7), same wavelengths) was 0.0113. For the same molecule, the “amount of absorption change per minute” value ([1]; Serum (8), same wavelengths) was 0.0150, the “amount of absorption change per minute” value ([1]; Serum (9), same wavelengths) was 0.0138 and the “amount of absorption change per minute” value ([1]; Serum (10), same wavelengths) was 0.0133. For the same molecule, the “amount of absorption change per minute” value [1, 7] was 0.0158.
In the case of CC(C)C[C@H](N)C(=O)Nc1ccc(N(CCCS(=O)(=O)O)CCCS(=O)(=O)O)cc1 [Compound No. 2, L-leucyl-p-N,N-disulfopropyl aminoanilide], the “λmax: Maximum wavelength” value [2] is reported as 745 nm, the “ST: Stability of pigment” value [3] is reported as > 98% and the solubility [4] is reported as 130 mg/mL (≈ 279 mM). For the same molecule, the “amount of absorption change per minute” value ([1]; Serum (2), same wavelengths) was 0.0395, the “amount of absorption change per minute” value ([1]; Serum (3), same wavelengths) was 0.0543 and the “amount of absorption change per minute” value ([1]; Serum (4), same wavelengths) was 0.0541. For the same molecule, the “amount of absorption change per minute” value ([1]; Serum (5), same wavelengths) was 0.0382, the “amount of absorption change per minute” value ([1]; Serum (6), same wavelengths) was 0.0437 and the “amount of absorption change per minute” value ([1]; Serum (7), same wavelengths) was 0.0400. The “amount of absorption change per minute” value ([1]; Serum (8), same wavelengths) was 0.0532, the “amount of absorption change per minute” value ([1]; Serum (9), same wavelengths) was 0.0537 and the “amount of absorption change per minute” value ([1]; Serum (10), same wavelengths) was 0.0476. For the same molecule, the “amount of absorption change per minute” value [1, 7] was 0.0454, the Ratio of sensitivity ([5]; Example 1 method (EMSE + laccase, 745 nm), reference) was 100 and the “absorption of the reaction solution” value ([5]; method (a) α-naphthol + meta-periodate/NaOH, 600 nm, Serum 1) was 0.331. For the same molecule, the “absorption of the reaction solution” value ([5]; method (a), 600 nm, Serum 2) was 0.291, the “absorption of the reaction solution” value ([5]; method (a), 600 nm, Serum 3) was 0.389 and the “absorption of the reaction solution” value ([5]; method (a), 600 nm, Serum 4) was 0.395. For the same molecule, the “absorption of the reaction solution” value ([5]; method (a), 600 nm, Serum 5) was 0.277, the “absorption of the reaction solution” value ([5]; method (a), 600 nm, Serum 6) was 0.322 and the “absorption of the reaction solution” value ([5]; method (a), 600 nm, Serum 7) was 0.291. The “absorption of the reaction solution” value ([5]; method (a), 600 nm, Serum 8) was 0.386, the “absorption of the reaction solution” value ([5]; method (a), 600 nm, Serum 9) was 0.392 and the “absorption of the reaction solution” value ([5]; method (a), 600 nm, Serum 10) was 0.346. The Ratio of sensitivity ([5]; method (a), relative to Example 1 = 100) was 73, the “absorption of the reaction solution” value ([5]; method (b) p-N,N-dimethylamino cinnamaldehyde/HCl, 570 nm, Serum 1) was 0.386 and the “absorption of the reaction solution” value ([5]; method (b), 570 nm, Serum 2) was 0.336. For the same molecule, the “absorption of the reaction solution” value ([5]; method (b), 570 nm, Serum 3) was 0.466, the “absorption of the reaction solution” value ([5]; method (b), 570 nm, Serum 4) was 0.460 and the “absorption of the reaction solution” value ([5]; method (b), 570 nm, Serum 5) was 0.320. The “absorption of the reaction solution” value ([5]; method (b), 570 nm, Serum 6) was 0.372, the “absorption of the reaction solution” value ([5]; method (b), 570 nm, Serum 7) was 0.333 and the “absorption of the reaction solution” value ([5]; method (b), 570 nm, Serum 8) was 0.453. For the same molecule, the “absorption of the reaction solution” value ([5]; method (b), 570 nm, Serum 9) was 0.460, the “absorption of the reaction solution” value ([5]; method (b), 570 nm, Serum 10) was 0.405 and the Ratio of sensitivity ([5]; method (b), relative to Example 1 = 100) was 85. For the same molecule, the “absorption of the reaction solution” value ([5]; method (c) sodium nitrite/HCl then 3,5-xylenol, 650 nm, Serum 1) was 0.277, the “absorption of the reaction solution” value ([5]; method (c), 650 nm, Serum 2) was 0.241 and the “absorption of the reaction solution” value ([5]; method (c), 650 nm, Serum 3) was 0.330. The “absorption of the reaction solution” value ([5]; method (c), 650 nm, Serum 4) was 0.325, the “absorption of the reaction solution” value ([5]; method (c), 650 nm, Serum 5) was 0.230 and the “absorption of the reaction solution” value ([5]; method (c), 650 nm, Serum 6) was 0.270. The “absorption of the reaction solution” value ([5]; method (c), 650 nm, Serum 7) was 0.244, the “absorption of the reaction solution” value ([5]; method (c), 650 nm, Serum 8) was 0.325 and the “absorption of the reaction solution” value ([5]; method (c), 650 nm, Serum 9) was 0.331. For the same molecule, the “absorption of the reaction solution” value ([5]; method (c), 650 nm, Serum 10) was 0.292 and the Ratio of sensitivity ([5]; method (c), relative to Example 1 = 100) was 61.
With CC(C)C[C@H](N)C(=O)Nc1ccc(O)c(C(=O)O)c1 [Control, reference compound] the “λmax: Maximum wavelength” value [2] was 615 nm, the “ST: Stability of pigment” value [3] was 90% and the solubility [4] was < 20 mg/mL.
With N[C@@H](CCC(=O)Nc1ccc(N(CCCS(=O)(=O)O)CCCS(=O)(=O)O)cc1)C(=O)O [compound 1] the “λmax: Maximum wavelength” value [2] was 745 nm, the “ST: Stability of pigment” value [3] was > 98% and the solubility [4] was > 200 mg/mL. For the same molecule, the “γ-GTP activity of the serum sample” value [6] was 231 mU/ml.
With CN(CCCS(=O)(=O)O)c1ccc(NC(=O)CC[C@H](N)C(=O)O)cc1 [compound 3] the “λmax: Maximum wavelength” value [2] was 750 nm, the “ST: Stability of pigment” value [3] was > 96% and the solubility [4] was 80 mg/mL (≈ 214 mM). For the same molecule, the “γ-GTP activity of the serum sample” value [6] was 228 mU/ml.
With CC(C)C[C@H](N)C(=O)Nc1ccc(N(C)CCCS(=O)(=O)O)cc1 [compound 4] the “λmax: Maximum wavelength” value [2] was 750 nm, the “ST: Stability of pigment” value [3] was > 96% and the solubility [4] was 65 mg/mL (≈ 182 mM).

Source: US4877727A, “Substrate for determining leucine aminopeptidase or gamma-glutamyltranspeptase activity” (Kyowa Medex Co., Ltd., priority 1984, dated 1989)
